The text below walks through data of patent publication US11261186B2, “Biaryl derivative as GPR120 agonist” (LG CHEM, LTD., priority 2014, dated 2022).

pEC50: −log10 of the molar value.

This test concerns the target T1, hGPR120 (Homo sapiens, UniProt Q5NUL3).
T1 construct: expressed in transfected cells; host or cells: CHO-K1
T1 sequence (Q5NUL3 1-361): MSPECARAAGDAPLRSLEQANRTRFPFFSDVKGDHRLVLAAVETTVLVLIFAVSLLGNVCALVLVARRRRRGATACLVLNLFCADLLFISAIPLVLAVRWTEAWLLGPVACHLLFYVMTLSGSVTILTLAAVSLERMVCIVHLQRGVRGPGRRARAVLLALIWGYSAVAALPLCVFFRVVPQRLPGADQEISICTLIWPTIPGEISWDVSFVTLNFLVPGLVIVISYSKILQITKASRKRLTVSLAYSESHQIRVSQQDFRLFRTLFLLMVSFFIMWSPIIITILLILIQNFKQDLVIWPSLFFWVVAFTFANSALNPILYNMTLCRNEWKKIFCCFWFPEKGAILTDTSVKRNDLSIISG
Put plainly: Measurement of Activity of GPR120 Agonist (Cell-Based Assay), Calcium 5 dye fluorescence. The settings on record: CHO-K1 cells expressing Ga16 and hGPR120. In short, it runs like this:
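CHO-K1 cells co-expressing Gα16 and hGPR120, plated 18 h, loaded 1 h at 37°C with Calcium 5 dye. Serially diluted agonists added at 0.5% DMSO final; fluorescence read at Ex 485/Em 525 nm and expressed as relative % of DMSO-only signal.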

As for `Cc1onc(COCC2CC2)c1-c1cc(F)c(OCCCC(=O)O)c(F)c1` [Example 390, 4-[4-[3-(cyclopropylmethoxymethyl)-5-methyl-isoxazol-4-yl]-2,6-difluoro-phenoxy]butanoic acid], the pEC50 is under 4.70. As to `Cc1cc(OC2CCC2)nc(-c2cc(F)c(OCCCC(=O)O)c(Cl)c2)n1` [Example 391, 4-[2-chloro-4-[4-(cyclobutoxy)-6-methyl-pyrimidin-2-yl]-6-fluoro-phenoxy]butanoic acid], the pEC50 is over 6.70. `Cc1cc(-c2cc(F)c(OCCCC(=O)O)c(Cl)c2)nc(OC2CCC2)n1` [Example 392, 4-[2-chloro-4-[2-(cyclobutoxy)-6-methyl-pyrimidin-4-yl]-6-fluoro-phenoxy]butanoic acid]: the pEC50 was over 6.70. Take `O=C(O)CCCOc1c(F)cc(-c2cc(OC3CCC3)cc(Cl)n2)cc1F` [Example 393, 4-[4-[6-chloro-4-(cyclobutoxy)-2-pyridyl]-2,6-difluoro-phenoxy]butanoic acid]: the pEC50 is over 6.70.

Take `O=C(O)CCCOc1c(F)cc(-c2csc(OC3CCC3)n2)cc1F` [Example 394, 4-[4-[2-(cyclobutoxy)thiazol-4-yl]-2,6-difluoro-phenoxy]butanoic acid]: the pEC50 is over 6.70. Consider `Cc1cc(OC2CCC2)nc(-c2cc(F)c(OCCCC(=O)O)c(F)c2)c1` [Example 395, 4-[4-[6-(cyclobutoxy)-4-methyl-2-pyridyl]-2,6-difluoro-phenoxy]butanoic acid], for which the pEC50 is over 6.70.

Turning to `Cc1cc(OCC2CC2)nc(-c2cc(F)c(OCCCC(=O)O)c(Cl)c2)n1` [Example 396, 4-[2-chloro-4-[4-(cyclopropylmethoxy)-6-methyl-pyrimidin-2-yl]-6-fluoro-phenoxy]butanoic acid], the pEC50 was over 6.70. As to `O=C(O)CCCOc1c(F)cc(-c2csc(OCC3CC3)n2)cc1F` [Example 397, 4-[4-[2-(cyclopropylmethoxy)thiazol-4-yl]-2,6-difluoro-phenoxy]butanoic acid], the pEC50 was over 6.70.

As to `O=C(O)CCCOc1c(F)cc(-c2cncc(OC3CCC3)n2)cc1F` [Example 398, 4-[4-[6-(cyclobutoxy)pyrazin-2-yl]-2,6-difluoro-phenoxy]butanoic acid], the pEC50 was over 6.70. As to `CC(CCCC(=O)O)c1c(F)cc(-c2cncc(OC3CCC3)n2)cc1F` (stereo not drawn) [Example 399, 5-[4-[6-(cyclobutoxy)pyrazin-2-yl]-2,6-difluoro-phenyl]hexanoic acid], the pEC50 is over 6.70.

For `O=C(O)CCCOc1c(F)cc(-c2cccc(OC3CCCC3)n2)cc1Cl` [Example 400, 4-[2-chloro-4-(6-cyclopentyloxy-pyridin-2-yl)-6-fluoro-phenoxy]-butyric acid], the pEC50 is over 6.70. The result for `O=C(O)CCCOc1c(F)cc(-c2cccc(OCC3CC3)n2)cc1Cl` [Example 401, 4-[2-chloro-4-(6-cyclopropylmethoxy-pyridin-2-yl)-6-fluoro-phenoxy]-butyric acid] reads over 6.70; that for `CC(C)Oc1cccc(-c2cc(F)c(OCCCC(=O)O)c(Cl)c2)n1` [Example 402, 4-[2-chloro-6-fluoro-4-(6-isopropoxy-pyridin-2-yl)-phenoxy]-butyric acid], over 6.70.

For `O=C(O)CCCOc1c(F)cc(-c2cccc(SC3CCC3)n2)cc1Cl` [Example 403, 4-[2-chloro-4-(6-cyclobutylsulfanyl-pyridin-2-yl)-6-fluoro-phenoxy]-butyric acid], the pEC50 was over 6.70. For `CC(C)Sc1cccc(-c2cc(F)c(OCCCC(=O)O)c(Cl)c2)n1` [Example 404, 4-[2-chloro-6-fluoro-4-(6-isopropylsulfanyl-pyridin-2-yl)-phenoxy]-butyric acid], the pEC50 was over 6.70. As for `O=C(O)CCCOc1c(F)cc(-c2cccc(OC3CCC3)c2)cc1Cl` [Example 405, 4-(5-chloro-3′-cyclobutoxy-3-fluoro-biphenyl-4-yloxy)-butyric acid], the figure is over 6.70. Turning to `O=C(O)CCCOc1c(F)cc(-c2cccc(OCC3CC3)c2)cc1Cl` [Example 406, 4-(5-chloro-3′-cyclopropylmethoxy-3-fluoro-biphenyl-4-yloxy)-butyric acid], the pEC50 is over 6.70. As for `COc1ccc(-c2cc(F)c(OCCCC(=O)O)c(Cl)c2)cc1OCC1CC1` [Example 407, 4-(5-chloro-3′-cyclopropylmethoxy-3-fluoro-4′-methoxy-biphenyl-4-yloxy)-butyric acid], the figure is over 6.70; as for `O=C(O)CCCOc1c(F)cc(-c2ccc(F)c(OCC3CC3)c2)cc1Cl` [Example 408, 4-(5-chloro-3′-cyclopropylmethoxy-3,4′-difluoro-biphenyl-4-yloxy)-butyric acid], over 6.70; as for `O=C(O)CCCOc1c(F)cc(-c2cccc(SC3CCC3)c2)cc1F` [Example 409, 4-(3′-cyclobutylsulfanyl-3,5-difluoro-biphenyl-4-yloxy)-butyric acid], over 6.70. As to `CC(CCCC(=O)O)c1c(F)cc(-c2cccc(OC3CCC3)c2)cc1F` (stereo not drawn) [Example 410, 5-(3′-cyclobutoxy-3,5-difluoro-biphenyl-4-yl)-hexanoic acid], the pEC50 was over 6.70.

In the case of `CC(CCCC(=O)O)c1c(F)cc(-c2cc(F)cc(OC3CCC3)c2)cc1F` (stereo not drawn) [Example 411, 5-(5′-cyclobutoxy-3,5,3′-trifluoro-biphenyl-4-yl)-hexanoic acid], the pEC50 is over 6.70.

As to `COc1ccc(-c2cc(F)c(C(C)CCCC(=O)O)c(F)c2)cc1OCC1CC1` (stereo not drawn) [Example 412, 5-(3′-cyclopropylmethoxy-3,5-difluoro-4′-methoxy-biphenyl-4-yl)-hexanoic acid], the pEC50 was over 6.70. `CC(CCCC(=O)O)c1c(F)cc(-c2cccc(OCC3CC3)c2)cc1F` (stereo not drawn) [Example 413, 5-(3′-cyclopropylmethoxy-3,5-difluoro-biphenyl-4-yl)-hexanoic acid]: the pEC50 was over 6.70. As for `O=C(O)CCCC(F)(F)c1ccc(-c2cc(F)cc(OC3CCC3)c2)cc1` [Example 414, 5-(5′-cyclobutoxy-3′-fluoro-biphenyl-4-yl)-5,5-difluoro-pentanoic acid], the pEC50 was over 6.70. As for `CC(CCCC(=O)O)c1c(F)cc(-c2ccc(Cl)c(OC3CCC3)n2)cc1F` (stereo not drawn) [Example 415, 5-[4-(5-chloro-6-cyclobutoxy-pyridin-2-yl)-2,6-difluoro-phenyl]-hexanoic acid], the pEC50 was over 6.70. In the case of `O=C(O)CCCOc1c(F)cc(-c2cccc(S(=O)(=O)C3CCC3)c2)cc1F` [Example 416, 4-(3′-cyclobutanesulfonyl-3,5-difluoro-biphenyl-4-yloxy)-butyric acid], the pEC50 was 5.70 to 6.70. As for `CN(Cc1cc(O)no1)c1ccc(-c2cccc(OC3CCC3)n2)cc1` [Example 417, 5-({[4-(6-cyclobutoxy-pyridin-2-yl)-phenyl]-methyl-amino}-methyl)-isoxazol-3-ol], the figure is over 6.70. With `Cc1cc(-c2cc(F)c(C(C)CCCC(=O)O)c(F)c2)nc(OC2CCC2)n1` (stereo not drawn) [Example 418, 5-[4-(2-cyclobutoxy-6-methyl-pyrimidin-4-yl)-2,6-difluoro-phenyl]-hexanoic acid], the pEC50 is over 6.70. Consider `Cc1cc(OC2CCC2)nc(-c2cc(F)c(C(C)CCCC(=O)O)c(F)c2)n1` (stereo not drawn) [Example 419, 5-[4-(4-cyclobutoxy-6-methyl-pyrimidin-2-yl)-2,6-difluoro-phenyl]-hexanoic acid], for which the pEC50 was over 6.70.

For orientation: pEC50 means the EC50 on a negative log10 scale, so that one unit is a factor of ten.
